Reference: publication PMC9078933 (2018)

Tested on: ATB1 (DNA, aptamer) ATATCTTTTCCTACTCATCTTTGAATAACTACCGGGCATTACTTTCTGGCCTCCCTGCCTCCTAAATCACCAATTAATTCGCGGCCCCCCG
Test: fluorescence recovery, aptamer-QD on graphene oxide
Conditions: phosphate buffer pH 7.2, 0.5% BSA, room temperature; tested concentration not stated

binding: no
SMILES: C[C@@H]1Cc2c(Cl)cc(C(=O)N[C@@H](Cc3ccccc3)C(=O)O)c(O)c2C(=O)O1
